Source: patent US20150175585A1, “FUSED QUINONIC COMPOUNDS” (CENTRO ATLANTICO DEL MEDICAMENTO S.A (CEAMED, S.A.), priority 2012, published 2015)

Experiments:
[1] = system: STAT5 transcription (pSPI-GLE1-luc) in HEK-GHR cells; test: HEK-GHR STAT5 transcription assay (luciferase reporter, rhGH stimulated); assay type: cell-based, human; conditions: Homo sapiens, compound 45 minutes before 50 nM rhGH, six hours, read-out: Activity (IC50, reduction of luciferase activity)
From the text: Plasmids: The full-length GHR was subcloned into pcDNA1/ampicillin (Invitrogen) as described previously (Ross R J, Esposito N, Shen X Y, et al., Mol Endocrinol 1997, 11:265-73). The pSPI-GLE1 (serine protease inhibitor 2.1 GAS-like element 1)-luc reporter construct was generated by subcloning the Stat5-binding element from serine protease inhibitor gene together with a minimal thymidine kinase promoter into the pGL2 plasmid (Promega), which contains the firefly luciferase cDNA (Wood T J, Sliva D, Lobie P E, et al. J Biol Chem 1995, 270:9448-53).
Cell culture: HEK-GHR cell line was maintained in Dulbecco's Modified Eagle Medium (DMEM)/F12 supplemented with 10% fetal bovine serum (FBS) and 50 U/ml penicillin/50 U/ml streptomycin. The cells were maintained in a humidified incubator with 5% CO2 at 37° C. Cell culture reagents were obtained from PAA laboratories. The HEK-GHR cell line is a stable clone generated and kindly donated by Prof. Richard Ross (Clinical Sciences, Northern General Hospital, Sheffield, UK). Briefly, HEK-GHR cell line was generated in HEK 293 cells (human kidney embryonal cell line) by transfection with the calcium phosphate procedure of the GHR plasmid with pcDNA3/Neo (Invitrogen). Selection was made using G418 (400 ug/ml, Sigma) (Maamra M, Finidori J, Von Laue S, et al., J Biol Chem 1999, 274(21):14791-8).
Luciferase reporter assay: Transcription assays were performed in HEK-GHR. The HEK-GHR cells were co-transfected with Stat5 luciferase (pSPI-GLE1-luc) reporter vector together with a plasmid constitutively expressing beta-galactosidase by using Metafectene Pro as described by the manufacturer (Biontex Laboratories GmbH, Munich, Germany). Following transfection, HEK-GHR cells were serum-starved for 20 h. Cells were then treated with vehicle (0.1% DMSO) or the indicated compound for 45 minutes prior to the addition of 50 nM recombinant human Growth Hormone (rhGH) (Norditropin, Novo Nordisk) to the medium. Six hours following rhGH addition, cells were harvested with Passive Lysis Buffer (Promega), and levels of luciferase were measured using Luciferase Assay System as described by the manufacturer (Promega). The Galacto-Light Plus System (Applied Biosystems) was used to measure beta-galactosidase activity.
Statistical analysis. The concentration of drug that provokes 50% reduction of luciferase activity (IC50) was determined by using non-linear regression analysis and data were fitted to a log concentration vs normalized response curve in GraphPad software v5 (San Diego, Calif.).

[2] = system: STAT3; test: IL-6 induced STAT3 phosphorylation in T47D cells (Western immunoblotting); assay type: cell-based, human; conditions: serum deprived T47D cells; 5 μM for 0.5-3 h or 0.5-10 μM; IL-6 25 ng/ml 30 min
Method: FIG. 2. • Overnight serum deprived T47D cells were stimulated with IL-6 (25 ng/ml) for 3, 5, 10, 20, 30, 45 and 60 min. JAK2, pYJAK2, STAT3 and pYSTAT3 were detected using Western immunoblotting as described in methods. B) Overnight serum derived T47D cells were pre-incubated with compound 4 (C4) (5 μM) for 0.5, 1, 2, and 3 h and stimulated with 25 ng/ml for 30 min. JAK2, pYJAK2, STAT3 and pYSTAT3 were detected using Western immunoblotting as described in methods. C) Overnight serum derived T47D cells were preincubated with C4 at increasing concentrations (0.5-10 μM) for 3 h and stimulated with 25 ng/ml IL-6 for 30 min. JAK2, pJAK2, STAT5 and pSTAT5 were detected using Western immunoblotting as described above. Equal protein loading was confirmed using a specific human anti-β-actin antibody. C—Veh: T47D cells exposed to C4 and IL-6 vehicle (0.1% DMSO and PBS, respectively) for the indicated times. C+: T47D cells exposed to C4 vehicle (0.1% DMSO) and stimulated with IL-6 (25 ng/ml) for the indicated time.
T47D cells were routinely maintained in 75-cm^2 culture flasks with vented caps at 37° C., 5% CO2 in RPMI 1640 growth media without phenol red supplemented with 10% FBS, 2 mM L-glutamine, 10 mM HEPES, 50 U/ml penicillin/50 U/ml streptomycin, and 0.3 mg/ml gentamicin. […]

N#Cc1ccc(C2C3=C(CCCC3=O)OC3=C2C(=O)c2ccccc2C3=O)cc1 (centres unmarked) [Compound 4, 4-(1,6,11-trioxo-2,3,4,6,11,12-hexahydro-1H-benzo[b]xanthen-12-yl)benzonitrile]
IC50 [1]: < 1000 nM | IL-6-induced STAT3 phosphorylation [2]: inhibits, in a time/dose dependent manner
